Where “and” joins values, the source holds several entries; their conditions need not be identical. Identical values can stand only once.
Experiments:
[1] = tested on: transgenic soybean expressing mutated PPO; test: Soybean segregating T1 individuals, greenhouse spray test (injury 0-9); assay type: in vivo, Glycine max; conditions: 1 week after treatment
[2] = tested on: transgenic Arabidopsis thaliana plants expressing wildtype or mutated PPO; test: Germination / growth inhibition assay of transgenic Arabidopsis T2 seeds in 48-well plates; conditions: growth inhibition seven to ten days after seeding

SMILES: Cc1nn(-c2cc(NS(C)(=O)=O)c(Cl)cc2Cl)c(=O)n1C(F)F [Sulfentrazon, sulfentrazone]
- injury (0-9 point scale) ([1]; SDS10791 AmtuPPX2L R128A_F420I, Sulfentrazone 350 g ai/ha): 9 (5×) and 2 (2×) and 1
- injury (0-9 point scale) ([1]; SDS10791 AmtuPPX2L R128A_F420I, Sulfentrazone 700 g ai/ha): 3 (3×) and 4 and 9 (3×) and 2
- injury (0-9 point scale) ([1]; SDS-10642 AmtuPPX2L R128A_F420L, Sulfentrazone 350 g ai/ha): 1 (2×) and 0 (3×) and 3 (2×) and 2
- injury (0-9 point scale) ([1]; SDS-10648 AmtuPPX2L R128A_F420I, Sulfentrazone 350 g ai/ha): 3 (3×) and 4 (2×) and 5 (2×) and 8
- injury (0-9 point scale) ([1]; SDS-10648 AmtuPPX2L R128A_F420I, Sulfentrazone 700 g ai/ha): 3 (2×) and 2 and 9 and 4 (4×)
- injury (0-9 point scale) ([1]; SDS-10652 AmtuPPX2L L397D_F420V, Sulfentrazone 350 g ai/ha): 9 and 6 and 3 (2×) and 5 (2×)
- injury (0-9 point scale) ([1]; SDS-10787 AmtuPPX2L R128A_F420L, Sulfentrazone 350 g ai/ha): 5 (4×) and 4 and 6 and 9 (2×)
- injury (0-9 point scale) ([1]; SDS-10985 AmtuPPX2L R128A_F420M, Sulfentrazone 350 g ai/ha): 3 (4×) and 8 and 4 and 1
- injury (0-9 point scale) ([1]; SDS-10985 AmtuPPX2L R128A_F420M, Sulfentrazone 700 g ai/ha): 1 and 9 (2×) and 2 (2×) and 3 (2×) and 4
- injury (0-9 point scale) ([1]; SDS-10990 AmtuPPX2L R128A_F420M, Sulfentrazone 350 g ai/ha): 3 (4×) and 4 (2×) and 9 (2×)
- injury (0-9 point scale) ([1]; SDS-10990 AmtuPPX2L R128A_F420M, Sulfentrazone 700 g ai/ha): 3 and 4 (4×) and 9 (3×)
- injury (0-9 point scale) ([1]; SDS-11034 AmtuPPX2L R128A_F420V, Sulfentrazone 350 g ai/ha): 1 (3×) and 3 (2×) and 9 and 0
- injury (0-9 point scale) ([1]; wild type, Sulfentrazone 350 g ai/ha): 9 (5×) and 7 (2×) and 8
- Relative tolerance rate as compared to a non-transgenic Arabidopsis plant (non-transgenic = 1.0) ([2]; transgenic Arabidopsis AMATU_PPO2_F420I): 193
- Relative tolerance rate as compared to a non-transgenic Arabidopsis plant (non-transgenic = 1.0) ([2]; transgenic Arabidopsis AMATU_PPO2_F420L): 111
- Relative tolerance rate as compared to a non-transgenic Arabidopsis plant (non-transgenic = 1.0) ([2]; transgenic Arabidopsis AMATU_PPO2_F420M): 161
- Relative tolerance rate as compared to a non-transgenic Arabidopsis plant (non-transgenic = 1.0) ([2]; transgenic Arabidopsis AMATU_PPO2_R128A_F420I): 621
- Relative tolerance rate as compared to a non-transgenic Arabidopsis plant (non-transgenic = 1.0) ([2]; transgenic Arabidopsis AMATU_PPO2_R128A_F420L): 717
- Relative tolerance rate as compared to a non-transgenic Arabidopsis plant (non-transgenic = 1.0) ([2]; transgenic Arabidopsis AMATU_PPO2_R128L): 186
- Relative tolerance rate as compared to a non-transgenic Arabidopsis plant (non-transgenic = 1.0) ([2]; transgenic Arabidopsis AMATU_PPO2_dG210): 203
- Relative tolerance rate as compared to a non-transgenic Arabidopsis plant (non-transgenic = 1.0) ([2]; transgenic Arabidopsis AMATU_PPO2_dG210_R128L): 244

— patent US11866720B2, “Transgenic or non-transgenic plants with mutated protoporphyrinogen oxidase having increased tolerance to herbicides” (priority 2013, dated 2024)
